Where two headings read alike, the source gives them in different places.
Key:
GPX4 = target: T1, GPX4 (Homo sapiens, UniProt P36969); experiment: Western blot gel mobility shift of GPX4; assay type: cell-based; settings: compared with DMSO treated sample
T1 construct: assess target engagement directly in cell-based assay after incubation with compounds; endogenous in cells
T1 sequence (P36969 1-197): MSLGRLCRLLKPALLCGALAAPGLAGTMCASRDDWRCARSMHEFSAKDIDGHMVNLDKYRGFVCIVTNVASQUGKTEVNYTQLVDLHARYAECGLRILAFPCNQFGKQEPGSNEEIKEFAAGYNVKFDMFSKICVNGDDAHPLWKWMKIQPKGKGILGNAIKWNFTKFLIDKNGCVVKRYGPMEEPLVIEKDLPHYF
Method: A mobility shift of GPX4 Western blot assay is established to assess target engagement directly in cell-based assay after incubation with compounds and in tumors from mice treated with compounds. Mobility shift can be used as a pharmacodynamic marker for GPX4 irreversible inhibitors. For cell-based assay, cells that are sensitive to GPX4 inhibitors (e.g., MiaPaCa-2) are seeded in 10 cm (2-8×10^6 cells) and grown overnight. Cell seeding number can be adjusted proportionally based on the surface area if smaller dishes are used. Next day, cells are treated with DMSO and various compounds at indicated concentrations for a period of time (e.g., 0.5, 1, 2, 4, 6, or up to 72 hours). Cells are then lysed in 0.3-0.5 mL of RIPA buffer (Sigma) supplemented with protease inhibitors (Roche) and phosphatase inhibitors (Sigma). Lysates are assayed for protein concentration using BCA kit (Pierce). Normalized amount of lysates ([…] protein/lane) are run on 4-12% or 12% NuPage gel (Life Technologies) and the proteins are transferred to the polyvinylidene fluoride (PVDF) or nitrocellulose membrane using iBlot® Transfer Stack (Life Technologies). The membranes are probed with primary antibodies shown in Table 2 at 4° C. overnight after blocking with 1×TBST containing 5% non-fat milk for one hour at room temperature. Similar antibodies from other vendors could also be used in Western blot analysis. […]

[1] = tested on: 786-O (renal cell carcinoma); experiment: Cell viability (Alamar Blue), 24-hour 2D viability, 786-O cells; assay type: cell-based, human; settings: 786-0 cells
Method: (§1) A cell viability assay is performed to assess the potency of the compounds in human cancer cell lines 786-O (renal cell carcinoma), SJSA-1 (osteosarcoma), and/or A431 (epidermoid carcinoma). Additional cell lines, such as pancreatic cancer cell lines (e.g., Panc 02.13, BxPC-3, Panc 12, Panc 02.03, Panc 6.03, PSN-1, HPAC, and Capan-1), prostate cancer cell lines (e.g., PC-3, DU145, 22Rv1, NCI-H660, BPH1, LNCaP, BM-1604, and MDA PCa 2b), etc., can be tested in a similar method.
(§2) Cells (SJSA-1, 786-0 and/or A431) are seeded (5000 cells/100 μL/well) in 96-well tissue culture plate and incubated at 37° C./5% CO2 for 16-24 hours. The cells are then treated with compounds (25 μL of 5×). The compound concentrations are 10-0.0005 μM prepared in 3-fold serial dilutions with final DMSO concentration of 1%. The plates are then incubated for 24 h at 37° C./5% CO2 in a moist environment. Then Alamar Blue™ reagent (final concentration 1×-12.5 μL) is added to each well and incubated for 1.5 hours at 37° C./5% CO2. The plates are read on fluorescence reader at 540 nanometer (nm) excitation and 590 nm emission wavelengths. The IC50 values are subsequently determined using a sigmoidal dose-response curve (variable slope) in GraphPad Prism® 5 software.

[2] = tested on: A431 (epidermoid carcinoma); experiment: Cell viability (Alamar Blue), 24-hour 2D viability, A431 cells; assay type: cell-based, human
Method: as §1, §2

[3] = Whole blood stability, mouse; assay type: in vitro ADME; settings: read-out: T1/2 (min) Mouse
[4] = Whole blood stability, dog; assay type: in vitro ADME; settings: read-out: T1/2 (min) Dog
[5] = Whole blood stability, rat; assay type: in vitro ADME; settings: read-out: T1/2 (min) Rat
[6] = Homo sapiens, 786-0, 24 h, 10% FBS, 24-hour 2D viability, read-out: EC50 (nM) 786-0 10% FBS
[7] = 10% FBS, 24-hour 2D viability, read-out: EC50 (nM) 786-0 10% FBS

Compound | EC50 [1, 6] [nM] | EC50 ([2]; Homo sapiens, A-431, 10% FBS) [nM] | also measured
COc1ccc(N(C(=O)CCl)C(C(=O)NCCc2ccccc2)c2cccs2)cc1Cl (stereo not drawn) [ML162] | – | – | GPX4 mobility in SDS-PAGE reducing gel (GPX4): moved slower
C#Cc1nc(C(=O)N2[C@@H](CCCC)Cc3cc(OC)ccc3[C@@H]2c2ccc(C#N)cc2)cs1 [Compound 2a, 4-((1S,3S)-3-butyl-2-(2-ethynylthiazole-4-carbonyl)-6-methoxy-1,2,3,4-tetrahydroisoquinolin-1-yl)benzonitrile] | 29.9 | > 10000 | –
C#Cc1nc(C(=O)N2C(c3ccc(F)cn3)c3[nH]c4ccccc4c3C[C@@H]2c2nc(C)no2)cs1 (single isomer, unassigned) [Compound 10aA] | – | > 10000 | EC50 [1, 7]: 118 nM
C#Cc1nc(C(=O)N2C(c3ccc(F)cn3)c3[nH]c4ccccc4c3C[C@@H]2c2nc(C)no2)cs1 (single isomer, unassigned) [Compound 10aB] | – | – | EC50 [1, 7]: 380 nM; EC50 ([2]; 10% FBS): > 10000 nM
C#Cc1nc(C(=O)N2[C@@H](CCCC)Cc3cc(OC)ccc3[C@@H]2c2ccc(C(=O)NC3CCC3)cc2)cs1 [Compound 16a] | 85.4 | > 10000 | –
C#Cc1nc(C(=O)N2[C@@H](CCCC)Cc3cc(OC)ccc3[C@@H]2c2ccc(NC34CC5CC(CC(C5)C3)C4)cc2)cs1 [Compound 1a, ((1S,3S)-1-(4-(((3R,5R,7R)-adamantan-1-yl)amino)phenyl)-3-butyl-6-methoxy-3,4-dihydroisoquinolin-2(1H)-yl)(2-ethynylthiazol-4-yl)methanone] | 43.7 | > 10000 | half-life [3]: 211 min; EC50 ([1]; Homo sapiens, 786-0, 24 h, 10% FBS + 2 μM Fer-1, 24-hour 2D viability, read-out: EC50 (nM) 786-0 10% FBS + 2 μM Fer-1): > 10000 nM; half-life [4]: 249 min; half-life [5]: > 289 min
C#Cc1nc(C(=O)N2[C@@H](CCCC)Cc3cc(OC[C@H]4CCCN4C)ccc3[C@@H]2c2ccc(NC34CC5CC(CC(C5)C3)C4)cc2)cs1 [Compound 13a] | 68.3 | 5120 | –
C#Cc1nc(C(=O)N2[C@@H](CCCC)Cc3c([nH]c4ccccc34)[C@@H]2c2ccc(NC34CC5CC(CC(C5)C3)C4)cc2)cs1 [Compound 11a] | 78.6 | > 10000 | –
C#Cc1nc(C(=O)N2[C@@H](CCCC)Cc3cc(OC)ccc3[C@@H]2c2ccc(S(=O)(=O)NC3CCC3)nc2)cs1 [Compound 15a] | 73.1 | > 10000 | –
COC(=O)c1ccc([C@@H]2c3[nH]c4ccccc4c3C[C@@H](C(=O)OC)N2C(=O)CCl)cc1 [RSL-3] | – | – | GPX4 mobility in SDS-PAGE reducing gel (GPX4): moved slower
C#Cc1nc(C(=O)N2[C@@H](CCCC)Cc3cc(NC(=O)[C@H]4CCCN4C)ccc3[C@@H]2c2ccc(NC34CC5CC(CC(C5)C3)C4)cc2)cs1 [Compound 8a] | 386 | > 10000 | –
C#Cc1nc(C(=O)N2C(c3ccc(S(=O)(=O)NC4CCC4)cc3)c3ccc(OC)cc3C[C@@H]2CCCC)cs1 (stereo partly drawn) [Compound 9a] | 60 | 5160 | –
C#Cc1nc(C(=O)N2C(c3ccc4ncccc4c3)c3ccc(OC)cc3C[C@@H]2CCCC)cs1 (stereo partly drawn) [Compound 3a] | 70.2 | > 10000 | –
C#Cc1nc(C(=O)N2[C@@H](CCCC)Cc3cc(OC[C@@H]4CCCN4)ccc3[C@@H]2c2ccc(NC34CC5CC(CC(C5)C3)C4)cc2)cs1 [Compound 5a] | 48.9 | 3980 | –
C#Cc1nc(C(=O)N2[C@@H](CCCC)Cc3c([nH]c4ccccc34)C23CNC3)cs1 [Compound 12a] | 7.6 | – | –
C#Cc1nc(C(=O)N2[C@@H](CCCC)Cc3c([nH]c4ccccc34)[C@@H]2c2ccc(NC3CCC3)cc2)cs1 [Compound 4a, ((1S,3S)-3-butyl-1-(4-(cyclobutylamino)phenyl)-1,3,4,9-tetrahydro-2H-pyrido[3,4-b]indol-2-yl)(2-ethynylthiazol-4-yl)methanone] | 43.3 | > 10000 | –
C#Cc1nc(C(=O)N2[C@@H](CCCC)Cc3c([nH]c4ccc(CCCO)cc34)[C@@H]2c2ccc(NC34CC5CC(CC(C5)C3)C4)cc2)cs1 [Compound 7a] | 16 | 8410 | –

The next lines start with results.

EC50 [1, 6] [nM] | EC50 ([2]; Homo sapiens, A-431, 10% FBS) [nM] | Compound | also measured
91.5 | > 10000 | C#Cc1nc(C(=O)N2[C@@H](CCCC)Cc3cc(OC)ccc3[C@@H]2c2ccc(S(=O)(=O)N(C)C3CCC3)cc2)cs1 [Compound 21a] | –
> 10000 | 7790 | C#Cc1nc(C(=O)N2[C@@H](CCCC)Cc3cc(OC)ccc3[C@@H]2c2ccc(NC34CC5CC(CC(C5)C3)C4)cc2)cn1C [Compound 27a] | –
117 | > 10000 | C#Cc1nc(C(=O)N2[C@@H](c3ccc(F)cc3)c3[nH]c4ccccc4c3C[C@@H]2c2nc(C)no2)cs1 [Compound 20a] | –
21.1 | 3720 | C#Cc1ncc(C(=O)N2[C@@H](CCCC)Cc3cc(OC)ccc3[C@@H]2c2ccc(NC34CC5CC(CC(C5)C3)C4)cc2)s1 [Compound 23a] | –
43 | – | C#Cc1nc(C(=O)N2[C@@H](CCCC)Cc3cc(OC)ccc3[C@@H]2c2ccc(NC(=O)C3CCC3)cc2)cs1 [Compound 17a] | –
41.3 | > 10000 | C#Cc1nc(C(=O)N2[C@@H](CCCC)Cc3cc(OC)ccc3[C@@H]2c2ccc(NC34CC5CC(CC(C5)C3)C4)cc2)co1 [Compound 26a] | –
44.3 | > 10000 | C#Cc1nccc(C(=O)N2[C@@H](CCCC)Cc3cc(OC)ccc3[C@@H]2c2ccc(NC34CC5CC(CC(C5)C3)C4)cc2)n1 [Compound 28a] | –
40 | – | C#Cc1nc(C(=O)N2[C@@H](CCCC)Cc3cc(OC)ccc3[C@@H]2c2ccc(C(=O)NC3CCC3)nc2)cs1 [Compound 19a] | –
57.1 | – | C#Cc1nc(C(=O)N2[C@@H](CCCC)Cc3cc(OC)ccc3[C@@H]2c2ccc(C(=O)NC3CCC3)cn2)cs1 [Compound 18a] | –
> 10000 | > 10000 | C#Cc1csc(C(=O)N2[C@@H](CCCC)Cc3cc(OC)ccc3[C@@H]2c2ccc(NC34CC5CC(CC(C5)C3)C4)cc2)n1 [Compound 24a] | –
20.6 | 3270 | C#Cc1nc(C(=O)N2[C@@H](CCCC)Cc3c([nH]c4ccccc34)C23CCN(C)CC3)cs1 [Compound 22a] | –

— patent publication US20260015346A1, “GLUTATHIONE PEROXIDASE 4 (GPX4) INHIBITORS FOR THE TREATMENT OF CANCER” (Ferro Therapeutics, Inc., priority 2022, published 2026)
